Data published in publication PMC6149898, “GPCR Modulation of Thieno[2,3-b]pyridine Anti-Proliferative Agents” (Molecules : A Journal of Synthetic Chemistry and Natural …, 2017).

Columns and labels:
ME:M14 = test system: ME:M14; set-up: method as in earlier work; details: NCI-60 panel; ref [4],[5],[6],[7]; cited from earlier work
CNS:SF-539 = test system: CNS:SF-539; set-up: method as in earlier work; details: NCI-60 panel; ref [4],[5],[6],[7]; cited from earlier work
LE:K-562 = test system: LE:K-562; set-up: method as in earlier work; details: NCI-60 panel; ref [4],[5],[6],[7]; cited from earlier work
GPR109A = GPR109A (Homo sapiens, UniProt Q8TDS4); assay: gpcrMAX PathHunter beta-arrestin
GPR109A, sequence (Q8TDS4 whole entry): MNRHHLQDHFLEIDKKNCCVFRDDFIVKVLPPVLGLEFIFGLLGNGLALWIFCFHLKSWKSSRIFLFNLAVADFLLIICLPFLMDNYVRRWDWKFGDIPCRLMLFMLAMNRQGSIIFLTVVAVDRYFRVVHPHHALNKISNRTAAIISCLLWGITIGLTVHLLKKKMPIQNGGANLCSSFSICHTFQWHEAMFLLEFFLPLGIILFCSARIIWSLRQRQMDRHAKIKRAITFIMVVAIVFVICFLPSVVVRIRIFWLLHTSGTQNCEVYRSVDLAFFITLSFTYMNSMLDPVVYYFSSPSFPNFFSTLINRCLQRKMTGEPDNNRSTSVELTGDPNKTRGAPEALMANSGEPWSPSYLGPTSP

NMU1R = NMU1R (Homo sapiens, UniProt Q9HB89); assay: gpcrMAX PathHunter beta-arrestin
GPR103 = GPR103 (Homo sapiens, UniProt Q96P65); assay: gpcrMAX PathHunter beta-arrestin
GPR103, sequence (Q96P65 whole entry): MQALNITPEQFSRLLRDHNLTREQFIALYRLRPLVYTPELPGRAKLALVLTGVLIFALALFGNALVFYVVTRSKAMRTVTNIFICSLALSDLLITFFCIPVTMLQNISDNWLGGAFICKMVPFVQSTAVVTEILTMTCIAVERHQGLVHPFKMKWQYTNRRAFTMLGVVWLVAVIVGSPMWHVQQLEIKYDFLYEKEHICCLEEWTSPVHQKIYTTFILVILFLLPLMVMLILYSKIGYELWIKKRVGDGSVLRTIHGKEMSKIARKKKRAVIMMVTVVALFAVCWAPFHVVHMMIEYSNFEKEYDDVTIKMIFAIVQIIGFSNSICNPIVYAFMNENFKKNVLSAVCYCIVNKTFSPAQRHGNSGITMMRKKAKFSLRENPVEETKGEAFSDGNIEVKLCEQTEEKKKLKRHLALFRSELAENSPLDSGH

ADORA3 = ADORA3 (Homo sapiens, UniProt P0DMS8); assay: gpcrMAX PathHunter beta-arrestin
ADORA3, sequence (P0DMS8 whole entry): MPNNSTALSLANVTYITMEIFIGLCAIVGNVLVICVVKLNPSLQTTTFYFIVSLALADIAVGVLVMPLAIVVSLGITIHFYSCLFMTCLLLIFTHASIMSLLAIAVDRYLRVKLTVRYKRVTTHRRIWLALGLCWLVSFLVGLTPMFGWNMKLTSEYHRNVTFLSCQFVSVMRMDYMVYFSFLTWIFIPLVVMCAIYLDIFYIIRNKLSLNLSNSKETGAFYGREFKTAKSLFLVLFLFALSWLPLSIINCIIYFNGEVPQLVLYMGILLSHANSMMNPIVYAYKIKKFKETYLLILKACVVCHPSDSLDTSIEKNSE

GALR1 = GALR1 (Homo sapiens, UniProt P47211); assay: gpcrMAX PathHunter beta-arrestin
AVPR1B = AVPR1B (Homo sapiens, UniProt P47901); assay: gpcrMAX PathHunter beta-arrestin
TACR3 = TACR3 (Homo sapiens, UniProt P29371); assay: gpcrMAX PathHunter beta-arrestin
TACR3, sequence (P29371 whole entry): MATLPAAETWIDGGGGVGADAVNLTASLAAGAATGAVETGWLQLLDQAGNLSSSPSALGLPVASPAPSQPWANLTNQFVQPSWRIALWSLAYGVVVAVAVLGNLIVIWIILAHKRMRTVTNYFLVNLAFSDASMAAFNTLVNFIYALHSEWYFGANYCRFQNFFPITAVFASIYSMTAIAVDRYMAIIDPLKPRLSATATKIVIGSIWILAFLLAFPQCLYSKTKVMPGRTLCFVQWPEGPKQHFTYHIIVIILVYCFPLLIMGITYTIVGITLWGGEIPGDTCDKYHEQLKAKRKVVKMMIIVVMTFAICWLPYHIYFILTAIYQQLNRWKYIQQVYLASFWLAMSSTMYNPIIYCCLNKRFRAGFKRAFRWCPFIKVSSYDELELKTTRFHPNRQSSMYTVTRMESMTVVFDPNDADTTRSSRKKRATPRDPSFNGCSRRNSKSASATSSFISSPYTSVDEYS
CNS:U251 = test system: CNS:U251; set-up: method as in earlier work; details: NCI-60 panel; ref [4],[5],[6],[7]; cited from earlier work
NPY1R = NPY1R (Homo sapiens, UniProt P25929); assay: gpcrMAX PathHunter beta-arrestin
P2RY6 = P2RY6 (Homo sapiens, UniProt Q15077); assay: gpcrMAX PathHunter beta-arrestin
BRS3 = BRS3 (Homo sapiens, UniProt P32247); assay: gpcrMAX PathHunter beta-arrestin
LTB4R = LTB4R (Homo sapiens, UniProt Q15722); assay: gpcrMAX PathHunter beta-arrestin
EDG1 = EDG1 (Homo sapiens, UniProt P21453); assay: gpcrMAX PathHunter beta-arrestin
HCRTR1 = HCRTR1 (Homo sapiens, UniProt O43613); assay: gpcrMAX PathHunter beta-arrestin
HCRTR1, sequence (O43613 whole entry): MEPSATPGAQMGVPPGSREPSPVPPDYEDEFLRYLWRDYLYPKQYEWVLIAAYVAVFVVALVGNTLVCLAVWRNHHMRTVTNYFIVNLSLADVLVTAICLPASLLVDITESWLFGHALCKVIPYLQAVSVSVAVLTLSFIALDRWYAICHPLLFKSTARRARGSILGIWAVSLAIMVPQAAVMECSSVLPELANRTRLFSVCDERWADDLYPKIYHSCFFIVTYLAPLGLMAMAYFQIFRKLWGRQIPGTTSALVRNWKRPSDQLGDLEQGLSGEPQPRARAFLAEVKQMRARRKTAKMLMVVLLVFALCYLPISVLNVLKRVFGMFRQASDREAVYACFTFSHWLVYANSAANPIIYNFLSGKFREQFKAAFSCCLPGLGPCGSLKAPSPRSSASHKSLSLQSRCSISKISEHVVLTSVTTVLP
CNS:SNB-75 = test system: CNS:SNB-75; set-up: method as in earlier work; details: NCI-60 panel; ref [4],[5],[6],[7]; cited from earlier work
LC:HOP-62 = test system: LC:HOP-62; set-up: method as in earlier work; details: NCI-60 panel; ref [4],[5],[6],[7]; cited from earlier work
ME:SK-MEL-28 = test system: ME:SK-MEL-28; set-up: method as in earlier work; details: NCI-60 panel; ref [4],[5],[6],[7]; cited from earlier work
CNS:SNB-19 = test system: CNS:SNB-19; set-up: method as in earlier work; details: NCI-60 panel; ref [4],[5],[6],[7]; cited from earlier work
OPRL1 = OPRL1 (Homo sapiens, UniProt P41146); assay: gpcrMAX PathHunter beta-arrestin
TACR2 = TACR2 (Homo sapiens, UniProt P21452); assay: gpcrMAX PathHunter beta-arrestin
ADRA2B = ADRA2B (Homo sapiens, UniProt P18089); assay: gpcrMAX PathHunter beta-arrestin
GHSR = GHSR (Homo sapiens, UniProt Q92847); assay: gpcrMAX PathHunter beta-arrestin
GHSR, sequence (Q92847 whole entry): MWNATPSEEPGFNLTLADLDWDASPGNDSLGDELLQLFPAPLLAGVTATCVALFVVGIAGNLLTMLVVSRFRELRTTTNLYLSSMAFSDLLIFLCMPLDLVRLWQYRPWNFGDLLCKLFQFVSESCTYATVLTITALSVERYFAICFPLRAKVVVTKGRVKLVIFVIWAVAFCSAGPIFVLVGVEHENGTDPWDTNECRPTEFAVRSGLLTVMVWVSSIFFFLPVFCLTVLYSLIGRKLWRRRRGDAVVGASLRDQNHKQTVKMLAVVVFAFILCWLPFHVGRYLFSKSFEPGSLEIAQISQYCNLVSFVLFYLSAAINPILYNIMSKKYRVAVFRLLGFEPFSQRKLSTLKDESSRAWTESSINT

AGTR1 = AGTR1 (Homo sapiens, UniProt P30556); assay: gpcrMAX PathHunter beta-arrestin
ME:MALME-3M = test system: ME:MALME-3M; set-up: method as in earlier work; details: NCI-60 panel; ref [4],[5],[6],[7]; cited from earlier work
ME:LOX IMVI = test system: ME:LOX IMVI; set-up: method as in earlier work; details: NCI-60 panel; ref [4],[5],[6],[7]; cited from earlier work
HCRTR2 = HCRTR2 (Homo sapiens, UniProt O43614); assay: gpcrMAX PathHunter beta-arrestin
HCRTR2, sequence (O43614 whole entry): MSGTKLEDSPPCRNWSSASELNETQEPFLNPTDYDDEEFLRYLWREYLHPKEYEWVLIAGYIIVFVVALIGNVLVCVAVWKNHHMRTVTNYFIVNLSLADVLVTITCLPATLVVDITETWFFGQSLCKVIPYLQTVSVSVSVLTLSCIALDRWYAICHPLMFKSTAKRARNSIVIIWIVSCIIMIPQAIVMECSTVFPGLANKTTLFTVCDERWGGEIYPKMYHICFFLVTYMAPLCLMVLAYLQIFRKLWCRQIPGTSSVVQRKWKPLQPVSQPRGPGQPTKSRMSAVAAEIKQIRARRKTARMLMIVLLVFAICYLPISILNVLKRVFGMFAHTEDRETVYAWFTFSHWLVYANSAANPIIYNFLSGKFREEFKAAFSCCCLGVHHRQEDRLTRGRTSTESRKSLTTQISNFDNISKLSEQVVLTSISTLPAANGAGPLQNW

FPRL1 = FPRL1 (Homo sapiens, UniProt P25090); assay: gpcrMAX PathHunter beta-arrestin
FPRL1, sequence (P25090 whole entry): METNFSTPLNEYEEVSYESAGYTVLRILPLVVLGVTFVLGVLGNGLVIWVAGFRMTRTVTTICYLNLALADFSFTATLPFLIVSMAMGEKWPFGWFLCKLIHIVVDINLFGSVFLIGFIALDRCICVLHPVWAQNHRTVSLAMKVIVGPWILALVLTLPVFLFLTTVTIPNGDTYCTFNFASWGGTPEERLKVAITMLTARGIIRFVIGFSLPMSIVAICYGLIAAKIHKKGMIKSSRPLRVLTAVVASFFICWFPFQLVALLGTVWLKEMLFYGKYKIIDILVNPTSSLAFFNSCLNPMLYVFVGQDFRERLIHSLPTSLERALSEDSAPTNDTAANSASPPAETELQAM
LC:HOP-92 = test system: LC:HOP-92; set-up: method as in earlier work; details: NCI-60 panel; ref [4],[5],[6],[7]; cited from earlier work
CHRM2 = CHRM2 (Homo sapiens, UniProt P08172); assay: gpcrMAX PathHunter beta-arrestin
ADRB2 = ADRB2 (Homo sapiens, UniProt P07550); assay: gpcrMAX PathHunter beta-arrestin
HRH1 = HRH1 (Homo sapiens, UniProt P35367); assay: gpcrMAX PathHunter beta-arrestin
HRH1, sequence (P35367 whole entry): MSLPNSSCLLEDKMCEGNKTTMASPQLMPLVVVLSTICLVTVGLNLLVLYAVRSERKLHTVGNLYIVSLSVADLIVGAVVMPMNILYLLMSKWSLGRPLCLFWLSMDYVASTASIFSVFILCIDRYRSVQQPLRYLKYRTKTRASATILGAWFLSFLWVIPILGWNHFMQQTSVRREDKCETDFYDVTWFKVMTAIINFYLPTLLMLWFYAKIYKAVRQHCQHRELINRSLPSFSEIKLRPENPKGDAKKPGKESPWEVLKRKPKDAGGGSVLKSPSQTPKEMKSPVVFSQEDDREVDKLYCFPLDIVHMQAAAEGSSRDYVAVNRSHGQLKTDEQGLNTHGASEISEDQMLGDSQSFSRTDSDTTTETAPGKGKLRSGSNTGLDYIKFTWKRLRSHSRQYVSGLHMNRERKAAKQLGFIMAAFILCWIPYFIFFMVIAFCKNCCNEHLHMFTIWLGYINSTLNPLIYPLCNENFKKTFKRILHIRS

CX3CR1 = CX3CR1 (Homo sapiens, UniProt P49238); assay: gpcrMAX PathHunter beta-arrestin
CX3CR1, sequence (P49238 whole entry): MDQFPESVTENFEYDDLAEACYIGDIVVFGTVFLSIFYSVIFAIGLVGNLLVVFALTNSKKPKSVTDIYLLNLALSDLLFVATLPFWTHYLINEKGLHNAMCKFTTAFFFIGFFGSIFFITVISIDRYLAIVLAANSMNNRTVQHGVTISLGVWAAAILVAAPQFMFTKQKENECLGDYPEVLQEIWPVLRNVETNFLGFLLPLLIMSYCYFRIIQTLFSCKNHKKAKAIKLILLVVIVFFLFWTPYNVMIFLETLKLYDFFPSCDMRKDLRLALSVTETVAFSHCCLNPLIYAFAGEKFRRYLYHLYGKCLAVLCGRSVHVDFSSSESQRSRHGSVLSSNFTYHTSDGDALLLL
LC:NCI-H226 = test system: LC:NCI-H226; set-up: method as in earlier work; details: NCI-60 panel; ref [4],[5],[6],[7]; cited from earlier work
GPR1 = GPR1 (Homo sapiens, UniProt P46091); assay: gpcrMAX PathHunter beta-arrestin
CALCR = CALCR (Homo sapiens, UniProt P30988); assay: gpcrMAX PathHunter beta-arrestin
MLNR = MLNR (Homo sapiens, UniProt O43193); assay: gpcrMAX PathHunter beta-arrestin
NPY2R = NPY2R (Homo sapiens, UniProt P49146); assay: gpcrMAX PathHunter beta-arrestin
NPY2R, sequence (P49146 whole entry): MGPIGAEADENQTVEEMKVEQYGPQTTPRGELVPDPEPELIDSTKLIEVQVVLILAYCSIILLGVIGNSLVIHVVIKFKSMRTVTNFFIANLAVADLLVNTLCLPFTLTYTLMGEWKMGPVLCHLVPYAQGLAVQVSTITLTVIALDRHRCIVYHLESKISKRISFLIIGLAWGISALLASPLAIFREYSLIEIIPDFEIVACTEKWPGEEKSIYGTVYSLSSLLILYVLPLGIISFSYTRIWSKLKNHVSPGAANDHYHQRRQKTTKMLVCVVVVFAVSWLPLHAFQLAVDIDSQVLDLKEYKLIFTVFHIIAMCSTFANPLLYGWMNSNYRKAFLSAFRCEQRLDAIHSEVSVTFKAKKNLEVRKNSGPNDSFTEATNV

CXCR2 = CXCR2 (Homo sapiens, UniProt P25025); assay: gpcrMAX PathHunter beta-arrestin
CXCR2, sequence (P25025 whole entry): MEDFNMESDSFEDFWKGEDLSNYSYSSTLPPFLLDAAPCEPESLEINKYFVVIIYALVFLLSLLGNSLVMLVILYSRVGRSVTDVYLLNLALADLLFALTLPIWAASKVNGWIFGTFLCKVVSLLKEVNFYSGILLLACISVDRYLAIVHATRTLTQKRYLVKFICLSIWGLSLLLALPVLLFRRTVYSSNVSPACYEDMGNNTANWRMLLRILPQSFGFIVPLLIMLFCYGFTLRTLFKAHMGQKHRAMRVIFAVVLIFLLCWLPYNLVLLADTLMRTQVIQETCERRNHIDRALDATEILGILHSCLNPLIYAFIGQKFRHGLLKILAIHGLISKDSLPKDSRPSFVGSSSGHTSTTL

For `Cc1c(Cl)cccc1NC(=O)c1sc2nc3c(cc2c1N)C(=O)CCC3` [Compound 1], the GI50 (ME:M14) is listed as 71.3 nM, the GI50 (CNS:SF-539) is listed as 38.2 nM and the GI50 (LE:K-562) is listed as 37.5 nM. For the same compound, the inhibition at 10 µM (GPR109A) was -13%, the inhibition at 10 µM (NMU1R) was 2% and the inhibition at 10 µM (GPR103) was -5%. For the same compound, the inhibition at 10 µM (ADORA3) was 25%, the inhibition at 10 µM (GALR1) was 12% and the inhibition at 10 µM (AVPR1B) was 3%. The inhibition at 10 µM (TACR3) was 5%, the GI50 (CNS:U251) was 96.2 nM and the inhibition at 10 µM (NPY1R) was 11%. For the same compound, the inhibition at 10 µM (P2RY6) was -17%, the inhibition at 10 µM (BRS3) was 17% and the inhibition at 10 µM (LTB4R) was 4%. The inhibition at 10 µM (EDG1) was -6%, the inhibition at 10 µM (HCRTR1) was 13% and the GI50 (CNS:SNB-75) was 40.3 nM. The GI50 (LC:HOP-62) was 110 nM, the GI50 (ME:SK-MEL-28) was 224 nM and the GI50 (CNS:SNB-19) was 70.1 nM. It also gave an inhibition at 10 µM (OPRL1) of -7%, an inhibition at 10 µM (TACR2) of 14% and an inhibition at 10 µM (ADRA2B) of -9%. For the same compound, the inhibition at 10 µM (GHSR) was -2%, the inhibition at 10 µM (AGTR1) was 7% and the GI50 (ME:MALME-3M) was 36.3 nM. For the same compound, the GI50 (ME:LOX IMVI) was 80.3 nM, the inhibition at 10 µM (HCRTR2) was 8% and the inhibition at 10 µM (FPRL1) was 11%. The GI50 (LC:HOP-92) was 47.9 nM, the inhibition at 10 µM (CHRM2) was -14% and the inhibition at 10 µM (ADRB2) was -46%. For the same compound, the inhibition at 10 µM (HRH1) was 13%, the inhibition at 10 µM (CX3CR1) was 11% and the GI50 (LC:NCI-H226) was 102 nM. It also gave an inhibition at 10 µM (GPR1) of 7%, an inhibition at 10 µM (CALCR) of -18% and an inhibition at 10 µM (MLNR) of -18%. For the same compound, the inhibition at 10 µM (NPY2R) was -9% and the inhibition at 10 µM (CXCR2) was 33%.
